The target in experiment [1] is T1, EcFADS (FAD synthase, RibF; RFK activity) (Escherichia coli, UniProt P0AG40).
T1 construct: full-length bifunctional RibF in pETDuet-1 (BamHI/NotI), His-tagged, Ni-NTA purified, expressed in E. coli BL21(DE3); natural BL21 variant H115L (not engineered); about 35 kDa; mainly monomer; tag removal not mentioned
Briefly: RFK assay, FMN by HPLC fluorescence, Michaelis-Menten fit. The class given is biochemical. The note with it: riboflavin kinase activity; 0.01-0.8 mM ATP, saturated RF; 15 mM MgCl2, 10 mM Na2SO3, potassium phosphate pH 7.5, 37 °C; read-out: KATP m. An excerpt:
(§1) RFK assay, FMN by HPLC fluorescence, Michaelis-Menten fit on EcFADS (FAD synthase, RibF; RFK activity)

For experiment [2], the target named is T2, EcFADS (FAD synthase, RibF; RFK activity) (Escherichia coli, UniProt P0AG40, H187L/N282D, form not given).
T2 construct: full-length bifunctional RibF in pETDuet-1 (BamHI/NotI), His-tagged, Ni-NTA purified, expressed in E. coli BL21(DE3); natural BL21 variant H115L (not engineered); about 35 kDa; mainly monomer; tag removal not mentioned
T2 sequence (P0AG40 whole entry H187L/N282D, form open): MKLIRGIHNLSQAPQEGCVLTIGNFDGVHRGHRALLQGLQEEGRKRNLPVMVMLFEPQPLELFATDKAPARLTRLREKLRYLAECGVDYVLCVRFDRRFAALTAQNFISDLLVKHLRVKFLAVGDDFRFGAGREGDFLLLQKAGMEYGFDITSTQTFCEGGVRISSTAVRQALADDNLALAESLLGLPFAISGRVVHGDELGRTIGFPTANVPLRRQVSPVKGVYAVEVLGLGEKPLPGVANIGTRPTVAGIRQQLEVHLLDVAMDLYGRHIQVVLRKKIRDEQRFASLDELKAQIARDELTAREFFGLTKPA
The experiment is described as above. It counts as biochemical. The conditions noted are these: riboflavin kinase activity; 0.01-0.8 mM ATP, saturated RF; 15 mM MgCl2, 10 mM Na2SO3, potassium phosphate pH 7.5, 37 °C; read-out: KATP m.
Text: as §1

Each structure is given as a SMILES string.

For `Nc1ncnc2c1ncn2[C@@H]1O[C@H](COP(=O)(O)OP(=O)(O)OP(=O)(O)O)[C@@H](O)[C@H]1O` [ATP], the Km worked out at 10.2 ± 2.55 µM in experiment [1] and 91.1 ± 36.7 µM in experiment [2].

For the origin of these results see PMC11047187 (Synthetic and Systems Biotechnology, 2024).
